From PMC12811658, “Design, Synthesis, and Structural Evolution of Pseudo‐Natural Product IDO1 Inhibitors and Degraders” (Angewandte Chemie (International Ed. in English), 2025)
Like-named read-outs stand apart in the source and are kept apart here.

Key:
[1] = system: Kyn levels in BxPC3 cells (kynurenine generated by IDO1); test: Cellular Kyn assay (automated Kyn screening assay); format: cell-based; conditions: IFN-γ, L-Trp and compounds 48 h, mean ± SD, read-out: IC50 (Kyn assay), reduction of kynurenine levels
[2] = target: IDO1 protein levels in BxPC3 cells (Homo sapiens, UniProt P14902); test: IDO1 immunoblotting (degradation); format: cell-based; set-up: endogenous in cells; host or cells: BxPC3 (DSMZ), IFN-γ stimulated; conditions: for IDO1 protein level by immunoblotting (in words): IFN-γ 24 h, washout, compounds 24 h; for Max. degradation (%): 24 h incubation, mean ± SD
IDO1 protein levels in BxPC3 cells, sequence (P14902 whole entry): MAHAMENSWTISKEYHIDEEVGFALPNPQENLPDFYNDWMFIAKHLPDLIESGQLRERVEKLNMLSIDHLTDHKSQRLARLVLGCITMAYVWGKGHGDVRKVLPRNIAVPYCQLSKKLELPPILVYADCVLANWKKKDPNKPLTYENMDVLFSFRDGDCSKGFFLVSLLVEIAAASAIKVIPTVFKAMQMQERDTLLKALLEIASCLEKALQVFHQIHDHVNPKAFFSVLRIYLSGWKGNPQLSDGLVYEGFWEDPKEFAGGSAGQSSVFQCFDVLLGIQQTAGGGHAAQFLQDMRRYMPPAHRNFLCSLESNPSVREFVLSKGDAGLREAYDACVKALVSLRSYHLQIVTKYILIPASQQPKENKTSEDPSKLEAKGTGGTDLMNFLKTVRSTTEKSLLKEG

[3] = target: T1, IDO1 protein in IFN-γ stimulated HeLa cells (Homo sapiens, UniProt P14902); test: IDO1 immunostaining (immunofluorescence); format: cell-based; conditions: 24 h
T1 construct: endogenous in cells; host or cells: HeLa (DSMZ), IFN-γ stimulated
T1 sequence (P14902 whole entry): as above
Description: Figure 3 Comparison of IDO1 degradation efficiency for selected compounds. a) Detection of IDO1 levels using immunostaining. IFN‐γ stimulated HeLa cells were treated with the compounds for 24 h. IDO1 protein abundance was detected with IDO1 antibody. Data are mean values ± SD, n = 3. b) IDO1 protein levels in BxPC3 cells upon compounds treatment were detected using immunoblotting. BxPC3 cells were treated with IFN‐γ for 24 h prior to washout, followed by addition of compounds. Representative blot and quantified band intensities are shown (mean values ± SD, n = 3). See Figure S11a S12a for the uncropped blots. c) Key functions of hit compounds that influence degradation efficiency. d) Heatmap for IDO degradation efficiency. IDO1 levels were monitored as described in (c). See Table S1 for mean values and Figure S11b for the uncropped blots. e)–g) Dose dependent degradation of IDO1 protein in BxPC3 cells treated with iDeg‐7–9 and detected as described in (c). Representative data of n = 3 except for iDeg‐9 (n = 4). See Figure S12 S13 for the uncropped blots. h) Quantification of IDO1 protein levels from e‐g (mean values ± SD, n = 3 except for iDeg‐9 (n = 4). i) Tabulated inhibition and degradation ability of iDeg‐6–9. ND: not detected. j) Volcano plot of iDeg‐6‐induced changes on the global proteome. SKOV‐3 cells were treated with 10 µM iDeg‐6 or DMSO for 4 h followed by protein extraction, tryptic digest and LC‐MS/MS analysis (n = 4). Plot generated using UMSAP (T 0 = 0.5, S 0 = 0.5).
IFN-γ-stimulated Hela cells (5 ng/mL IFN-γ) were seeded in 96-well plates and incubated for 24 h. Subsequently, IFN-γ was washed out and cells were treated with compounds for additional 24 h. Cells were then washed once with PBS and fixed with 3.7% paraformaldehyde for 10 min at room temperature. Cells were washed three times with ice-cold PBS. […] Images were analyzed by SpectraMax Paradigm microplate reader (Molecular Devices) to extract IDO1 fluorescence intensity as well as the cell count. IDO1 fluorescence intensity was normalized to cell count. […]

[4] = target: T2, recombinant human IDO1 (Homo sapiens, UniProt P14902); test: IDO1 enzymatic assay in vitro; format: biochemical
T2 construct: The GST-tag of IDO1 was removed to obtain untagged full-length IDO1l using PreScission protease; GST (N, cleaved yes); made in house; own inference
T2 sequence (P14902 whole entry): as above

[5] = target: T3, recombinant full-length human IDO1 (Homo sapiens, UniProt P14902); test: Thermal shift assay (nanoDSF); format: binding; conditions: 50 µM, 3 h at 37 °C
T3 construct: The GST-tag of IDO1 was removed to obtain untagged full-length IDO1l using PreScission protease; GST (N, cleaved yes); made in house; own inference
T3 sequence (P14902 whole entry): as above
Description: Incubation at 37 °C for 3 h. Representative data for n = 3. c) Time‐course of heme displacement from IDO1 detected by the absorbance at the Soret peak (404 nm) as a function of time. […] All curves were fit using a one‐site model with N = 1 and defined IDO1 concentration. Left plots show baseline corrected data, while right plots show integrated binding isotherms versus iDegs/IDO1 ratio. IDO1 protein (125 µM) was titrated into the stirred sample cell containing iDegs (25 µM, except for iDeg‐8 at 50 µM). Representative data for n = 3, except for iDeg‐9 (n = 2). g)–i) In vivo activity of iDeg‐6. NSG immunodeficient mice were injected with SKOV‐3 cells. Mice were treated with 18 intraperitoneal injections of iDeg‐6 (30 mg kg^−1) or vehicle. The pharmacological treatment was twice daily. Tumor volume was determined weekly by digital caliper. g) SKOV‐3 tumor growth curves in iDeg‐6‐treated mice (n = 12, green lines) or vehicle‐treated mice (n = 13, gray lines). Statistical analysis was performed by two‐way ANOVA: ****p < 0.001. h) Body weight changes during treatment window (mean values ± range). i) Survival data are shown by Kaplan‐Meier survival analysis. Mantel–Haenszel statistical analysis: p < 0.0001). […]
The test compounds or DMSO (vehicle control) were incubated with recombinant full-length human IDO1 (rhIDO1; 10 µM) in 50 mM potassium phosphate buffer (pH 6.5) for 3 h at 37 °C. Following incubation, samples were centrifuged at 5,000 × g for 10 minutes, then the protein-compound solutions were loaded into capillaries, and thermal unfolding was assessed using the Prometheus Panta system (NanoTemper® Technologies, Germany). Fluorescence intensities at 330 nm and 350 nm were recorded at temperature increments of 0.115 °C from 20 °C to 90 °C. Melting temperatures (Tm) were automatically calculated using Prometheus NT.48 analysis software. The resulting thermal denaturation curves, with Tm defined as the temperature at the maximum derivative of the unfolding transition, were visualized and analysed using GraphPad Prism version 9.0 (GraphPad Software, USA).

[6] = target: T4, heme-bound IDO1 (holo-IDO1) (Homo sapiens, UniProt P14902); test: UV/Vis detection of heme-bound IDO1 (heme displacement); format: binding; conditions: 50 µM; for heme displacement from holo-IDO1 (in words): 37 °C, 3 h, Soret band 404 nm
T4 construct: The GST-tag of IDO1 was removed to obtain untagged full-length IDO1l using PreScission protease; GST (N, cleaved yes); made in house; own inference
T4 sequence (P14902 whole entry): as above
Description: (§1) Incubation at 37 °C for 3 h. Representative data for n = 3. c) Time‐course of heme displacement from IDO1 detected by the absorbance at the Soret peak (404 nm) as a function of time. […] All curves were fit using a one‐site model with N = 1 and defined IDO1 concentration. Left plots show baseline corrected data, while right plots show integrated binding isotherms versus iDegs/IDO1 ratio. IDO1 protein (125 µM) was titrated into the stirred sample cell containing iDegs (25 µM, except for iDeg‐8 at 50 µM). Representative data for n = 3, except for iDeg‐9 (n = 2). g)–i) In vivo activity of iDeg‐6. NSG immunodeficient mice were injected with SKOV‐3 cells. Mice were treated with 18 intraperitoneal injections of iDeg‐6 (30 mg kg^−1) or vehicle. The pharmacological treatment was twice daily. Tumor volume was determined weekly by digital caliper. g) SKOV‐3 tumor growth curves in iDeg‐6‐treated mice (n = 12, green lines) or vehicle‐treated mice (n = 13, gray lines). Statistical analysis was performed by two‐way ANOVA: ****p < 0.001. h) Body weight changes during treatment window (mean values ± range). i) Survival data are shown by Kaplan‐Meier survival analysis. Mantel–Haenszel statistical analysis: p < 0.0001).
Representative data of n=3 biological replicates. c, IDO1 was incubated with compounds (50 µM) or DMSO (control). UV/VIS spectra were acquired at five time points to monitor heme loss over time. Data are representative of two replicates.
The test compounds or DMSO (vehicle control) were incubated with recombinant full-length human IDO1 (rhIDO1; 10 µM) in 50 mM potassium phosphate buffer (pH 6.5) for 3 h at 37 °C. Following incubation, samples were centrifuged at 5,000 × g for 10 minutes. UV/Vis absorption spectra were then recorded from 250 nm to 650 nm in 1 nm increments using UV-transparent microplates (UV-STAR®, Greiner Bio-One, Austria) on a Spark® multimode microplate reader (Tecan, Austria). Absorbance values were analyzed at 404 nm (A404), and were plotted using GraphPad Prism version 9.0 (GraphPad Software, USA).

[7] = target: T3, recombinant full-length human IDO1; test: Isothermal titration calorimetry (ITC); format: binding; conditions: 25 °C
Description: as §1
ITC was performed using the MicroCal PEAQ-ITC system (Malvern) at 25 °C. Recombinant human full-length IDO1 (rhIDO1) was buffer-exchanged into 100 mM phosphate buffer (50 mM KH₂PO₄ and 50 mM K₂HPO₄, pH 6.57) with 1 mM TECP using a 10 K Amicon® Ultra centrifugal filter (Millipore). The buffer exchange was repeated ten times to ensure complete removal of interfering components. The final protein sample was diluted in the same phosphate buffer prior to titration.125 μM protein in 100 mM phosphate buffer was loaded into the syringe, while 25 μM compound (except for iDeg-8, 50 μM) in 100 mM phosphate buffer was loaded to the cell. All samples were adjusted to 25 °C and degassed before loading. Titrations were performed at 25 °C with one injection of 0.4 µL, followed by 18 injections of 2 µL. Experiments were performed with three biological replicates except for iDeg-9 with two biological replicates. Data were analyzed using the MicroCal PEAQ-ITC Analysis software and were plotted using GraphPad Prism 9.0 (GraphPad, USA).

[8] = at 14 µM, pre-incubation 37 °C 45 min, mean ± SD
[9] = pre-incubation 37 °C 45 min, determined if inhibition at 14 µM higher than 50%

IC50 ([1]; Homo sapiens, BXPC-3, 48 h)	IDO1 protein level by immunoblotting (in words) ([2]; BxPC3 cells)	inhibition at 14 µM [4, 8]	shift in IDO1 melting temperature ΔTm / binding in TSA (in words) [5]	Max. degradation (%) ([2]; 10 nM)	Max. degradation (%) ([2]; 100 nM)	heme displacement from holo-IDO1 (in words) [6]	Structure (SMILES)	IDO1 staining fluorescence intensity (in words) [3]	IDO1 activity IC50 [µM] (in vitro assay) [4, 9]	also measured
830 ± 310 nM	modulate IDO1 abundance	< 25%					Cc1ccc(NC(=O)OC[C@]23CN(S(=O)(=O)c4ccc(C(C)(C)C)cc4)C[C@H]2C[C@H]2C[C@@H]3C2(C)C)cc1 [10 (iDeg-1), ((3aS,4R,6R,7aS)-2-((4-(tert-butyl)phenyl)sulfonyl)-5,5-dimethyloctahydro-3aH-4,6-methanoisoindol-3a-yl)methyl p-tolylcarbamate]	reduced the fluorescence intensity of the IDO1 staining	– (Inactive: >75% Kyn level observed up to a concentration of 14 µM and no IC50 value obtained)	
120 ± 20 nM	modulate IDO1 abundance	< 25%	identical binding in the TSA assay	20 ± 9 (3) %	37 ± 14 (3) %	displaced heme to a similar extent	CC(C)(C)c1ccc(S(=O)(=O)N2C[C@H]3C[C@H]4C[C@H](C4(C)C)[C@@]3(COC(=O)Nc3ccc(I)cc3)C2)cc1 [14 (iDeg-2)]	reduced the fluorescence intensity of the IDO1 staining	– (Inactive: >75% Kyn level observed up to a concentration of 14 µM and no IC50 value obtained)	Degradation Efficiency (%) ([2]; 100 nM, BxPC3 cells, heatmap Fig. 3d): 37%
5 nM	barely affected the IDO1 level	64 ± 1%	highest ΔT m value	20 ± 9 (9) %	21 ± 20 (9) %	most efficient heme displacement	C#Cc1ccc(NC(=O)OC[C@]23CN(S(=O)(=O)c4ccc(C(C)(C)C(=O)O)cc4C)C[C@H]2C[C@H]2C[C@@H]3C2(C)C)cc1 [102 (iDeg-9), 2-(4-(((3aS,4R,6R,7aS)-3a-((((4-ethynylphenyl)carbamoyl)oxy)methyl)-5,5-dimethyloctahydro-2H-4,6-methanoisoindol-2-yl)sulfonyl)-3-methylphenyl)-2-methylpropanoic acid]			-TΔS (ITC) [7]: 15.6 kcal/mol; Kd [7]: 215 nM; ΔG (ITC) [7]: -9.1 kcal/mol; ΔH (ITC) [7]: -24.7 ± 0.3 kcal/mol; Kd ([7]; one-site model): 220 ± 20 nM; Dmax at 0.1 µM ([2]; BXPC-3, @100 nM, BxPC3 cells): 21%; time course of heme displacement (in words) ([6]; absorbance at 404 nm over time, compared to iDeg-6 and -8): faster; IC50 [4, 9]: 0.089 ± 0.03 µM
	did not reduce the IDO1 protein level		identical binding in the TSA assay			displaced heme to a similar extent	CC(C)(C)c1ccc(S(=O)(=O)N2CC[C@@]3(C2)[C@@H]2C[C@H](C[C@H]3OC(=O)Nc3ccc(I)cc3)C2(C)C)cc1 [compound 22, (1R,2S,3R,5R)-1'-((4-(tert-butyl)phenyl)sulfonyl)-6,6-dimethylspiro[bicyclo[3.1.1]heptane-2,3'-pyrrolidin]-3-yl (4-iodophenyl)carbamate]	did not induce IDO1 protein degradation	– (Inactive: >75% Kyn level observed up to a concentration of 14 µM and no IC50 value obtained)	IC50 [1]: 490 ± 60 nM; IDO1 activity Inhibition (%) [4, 8]: ns (not significant); in vitro IDO1 inhibition (in words) ([4]; up to 14 µM, incubated with IDO1 for 45 min): no activity
